Key:
[1] = In vitro stability in phosphate-buffered saline and fetal bovine serum (radio-HPLC); type: in vitro ADME; conditions: 4 h incubation in phosphate-buffered saline and fetal bovine serum
HT-1080-FAP cells = test: Cell uptake and blocking experiment; type: cell-based, human; conditions: 120 min
Description: (§1) A human fibrosarcoma cell line was stably transfected with FAP (HT-1080-FAP) and cultured, as previously described ([15]). A human glioblastoma cell line (U87MG, from the Chinese National Infrastructure of Cell Line Resource) was cultured in Dulbecco modified Eagle medium (Thermo Fischer Scientific) supplemented with 10% fetal bovine serum (Thermo Fisher Scientific). HT-1080-FAP cells were seeded in 24-well plates using RPMI 1640 medium with 10% fetal bovine serum, and the medium was replaced with fresh medium without fetal bovine serum when the cells reached 80%–90% density. ^68Ga-FAPI-46, ^68Ga-DOTA-2P(FAPI)2, ^68Ga-DOTA-4P(FAPI)4, or ^68Ga-DOTA-4P(FAPI)4 with 11.3 nmol of unlabeled FAPI-46 (for the blocking experiment) were added to the 24-well plates and incubated for 60, 90, and 120 min. For the competitive cell-binding assay, a gradient concentration (5.6 × 10^−13 to 10^−5 M) of FAPI-46, DOTA-2P(FAPI)2, or DOTA-4P(FAPI)4 was added to the cells and incubated with ^68Ga-FAPI-46 for 60 min. Similarly, a gradient concentration (5.4 × 10^−13 to 10^−5 M) of NOTA-2P(FAPI)2 or NOTA-4P(FAPI)4 was added to the cells and incubated with ^68Ga-FAPI-46 for 60 min. After each step, the cells were washed twice with phosphate-buffered saline (1 mL) and lysed with 1 M NaOH (0.5 mL). The radioactivity (counts per minute) was determined with a γ-counter (WIZARD^2 2480; PerkinElmer Inc.). All experiments were independently repeated 3 times. The 50% inhibitory concentrations were determined by fitting a nonlinear regression model to the data using Prism software, version 8 (GraphPad Software Inc.).

HT-1080-FAP tumors = test: Small-animal PET in HT-1080-FAP tumor-bearing mice; type: in vivo
Description: (§2) All animal experimental procedures were approved by the Animal Care and Ethics Committee of Xiamen University and performed in accordance with the Guidelines for the Care and Use of Animals of the Xiamen University Laboratory Animal Center. For in vivo experiments, 6-wk-old BALB/c nude mice (Beijing Vital River Laboratory Animal Technology Co., Ltd.) were subcutaneously inoculated with HT-1080-FAP or U87 cells (5 × 10^6 in 100 μL of phosphate-buffered saline) in the right shoulder.
(§3) Dynamic PET, static PET (with or without competition), and SPECT scans with radiolabeled monomeric, dimeric, and tetrameric FAPIs were performed on HT-1080-FAP tumor–bearing mice for pharmacokinetic evaluation. Additionally, static PET with ^68Ga-labeled monomeric, dimeric, and tetrameric FAPIs was performed and compared in U87MG tumor–bearing mice.
(§4) Approximately 7.4 MBq of ^68Ga-DOTA-4P(FAPI)4 was intravenously injected into HT-1080-FAP tumor–bearing mice (n = 3) for the 60-min dynamic PET. For multiple-time-point static PET (0.5, 1, 2, and 4 h after injection), 7.4 MBq of ^68Ga-FAPI-46, ^68Ga-DOTA-2P(FAPI)2, or ^68Ga-DOTA-4P(FAPI)4 were injected into HT-1080-FAP and U87MG tumor–bearing mice (3/group). For longer-term observation, HT-1080-FAP tumor–bearing mice were intravenously injected with 7.4 MBq of ^64Cu-NOTA-2P(FAPI)2 or ^64Cu-NOTA-4P(FAPI)4 (3/group). For the in vivo blocking experiment, PET imaging was performed 1 h after the simultaneous administration of 30 nmol of unlabeled FAPI-46 and 7.4 MBq of ^68Ga-DOTA-4P(FAPI)4.

U87MG tumors = test: Small-animal static PET in U87MG tumor-bearing mice; type: in vivo
Description: as §2, §3
as §4, with “For the in vivo blocking experiment, PET imaging was performed 1 h after the simultaneous administration of 30 nmol of unlabeled FAPI-46 and 7.4 MBq of ^68Ga-DOTA-4P(FAPI)4.” left out

[2] = target: T1, FAP (FAP-positive HT-1080-FAP cells) (Homo sapiens, UniProt Q12884); test: Competitive cell-binding assay against ^68Ga-FAPI-46; conditions: competition with ^68Ga-FAPI-46, 60 min, read-out: 50% inhibitory concentration
T1 construct: expressed in transfected cells; host or cells: HT-1080 human fibrosarcoma cells, stably transfected (HT-1080-FAP)
T1 sequence (Q12884 1-760): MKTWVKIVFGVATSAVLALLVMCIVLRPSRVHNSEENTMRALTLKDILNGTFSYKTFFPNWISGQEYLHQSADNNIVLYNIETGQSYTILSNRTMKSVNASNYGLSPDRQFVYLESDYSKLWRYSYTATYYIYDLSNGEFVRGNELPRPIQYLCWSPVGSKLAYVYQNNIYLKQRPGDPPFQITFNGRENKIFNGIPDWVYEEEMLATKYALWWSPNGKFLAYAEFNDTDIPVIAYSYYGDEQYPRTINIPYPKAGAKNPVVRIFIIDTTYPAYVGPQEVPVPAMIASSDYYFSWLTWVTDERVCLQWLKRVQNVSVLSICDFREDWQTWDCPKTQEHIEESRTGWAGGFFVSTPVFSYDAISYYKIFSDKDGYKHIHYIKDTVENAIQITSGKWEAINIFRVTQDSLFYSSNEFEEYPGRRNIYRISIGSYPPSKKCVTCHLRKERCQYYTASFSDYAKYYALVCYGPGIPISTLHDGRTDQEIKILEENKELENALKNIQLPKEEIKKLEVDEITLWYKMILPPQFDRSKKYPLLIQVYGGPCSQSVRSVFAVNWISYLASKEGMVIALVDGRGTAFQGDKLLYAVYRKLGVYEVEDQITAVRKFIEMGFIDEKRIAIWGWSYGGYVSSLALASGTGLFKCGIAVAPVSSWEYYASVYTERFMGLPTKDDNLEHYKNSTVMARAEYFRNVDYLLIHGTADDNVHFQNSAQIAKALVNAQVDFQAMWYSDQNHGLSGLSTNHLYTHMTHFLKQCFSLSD
Description: as §1, with “Similarly, a gradient concentration (5.4 × 10^−13 to 10^−5 M) of NOTA-2P(FAPI)2 or NOTA-4P(FAPI)4 was added to the cells and incubated with ^68Ga-FAPI-46 for 60 min. After each step, the cells were washed twice with phosphate-buffered saline (1 mL) and lysed with 1 M NaOH (0.5 mL).” left out, “All experiments were independently repeated 3 times.” left out

SMILES	in vitro stability (demetallation / free radioactivity) [1]	in vitro stability (demetallation / free radioactivity) ([1]; listed as 68Ga-DOTA-4P[FAPI]4)	cell uptake (HT-1080-FAP cells)	reduction of cell uptake by blocking (HT-1080-FAP cells; unlabeled FAPI-46) [%]	cell uptake with blocking (HT-1080-FAP cells; with 11.3 nmol unlabeled FAPI-46)	elimination route (HT-1080-FAP tumors; HT-1080-FAP tumor-bearing mice, PET)	reduction in tumor uptake by blocking (HT-1080-FAP tumors; HT-1080-FAP tumors, 1 h after injection, unlabeled FAPI-46) [%]	tumor uptake SUVmean without blocking (HT-1080-FAP tumors; HT-1080-FAP tumors, PET, 1 h after injection)	tumor uptake SUVmean with blocking (HT-1080-FAP tumors; HT-1080-FAP tumors, PET, 1 h after injection, coinjection of 30 nmol unlabeled FAPI-46)	tumor uptake SUVmean (HT-1080-FAP tumors; HT-1080-FAP tumors, PET, 4 h after injection)	course of tumor uptake over time (HT-1080-FAP tumors; HT-1080-FAP tumors, static PET up to 4 h after injection)	washout from tumor (U87MG tumors; PET 0.5-4 h after injection)	tumor uptake SUVmean (U87MG tumors; PET, 1 h after injection)	IC50 [2] [nM]
CN(CCCN1CCN(C(=O)COCCOCCOCCNC(=O)CCC(=O)NCCCC[C@H](NC(=O)CCC(=O)NCCOCCOCCOCC(=O)N2CCN(CCCN(C)c3ccc4nccc(C(=O)NCC(=O)N5CC(F)(F)C[C@H]5C#N)c4c3)CC2)C(=O)NCCCC[C@H](NC(=O)[C@H](CCCCNC(=O)CN2CCN(CC(=O)[O-])CCN(CC(=O)[O-])CCN(CC(=O)[O-])CC2)NC(=O)CCC(=O)NCCOCCOCCOCC(=O)N2CCN(CCCN(C)c3ccc4nccc(C(=O)NCC(=O)N5CC(F)(F)C[C@H]5C#N)c4c3)CC2)C(=O)NCCOCCOCCOCC(=O)N2CCN(CCCN(C)c3ccc4nccc(C(=O)NCC(=O)N5CC(F)(F)C[C@H]5C#N)c4c3)CC2)CC1)c1ccc2nccc(C(=O)NCC(=O)N3CC(F)(F)C[C@H]3C#N)c2c1.[68Ga+3] [^68Ga-DOTA-4P(FAPI)4]	highly stable	neither significant demetallation nor free radioactivity was observed	57.98% ± 0.27%	97	1.79% ± 0.97%	eliminated predominantly through the kidneys and bladder	92	1.87 ± 0.08	0.16 ± 0.03	1.99 ± 0.09	tumor uptake remained constant up to 4 h after injection	minimal	0.72 ± 0.02	–
CN(CCCN1CCN(C(=O)COCCOCCOCCNC(=O)CCC(=O)NCCCC[C@H](NC(=O)CCC(=O)NCCOCCOCCOCC(=O)N2CCN(CCCN(C)c3ccc4nccc(C(=O)NCC(=O)N5CC(F)(F)C[C@H]5C#N)c4c3)CC2)C(=O)NCCCC[C@H](NC(=O)[C@H](CCCCNC(=O)CN2CCN(CC(=O)O)CCN(CC(=O)O)CCN(CC(=O)O)CC2)NC(=O)CCC(=O)NCCOCCOCCOCC(=O)N2CCN(CCCN(C)c3ccc4nccc(C(=O)NCC(=O)N5CC(F)(F)C[C@H]5C#N)c4c3)CC2)C(=O)NCCOCCOCCOCC(=O)N2CCN(CCCN(C)c3ccc4nccc(C(=O)NCC(=O)N5CC(F)(F)C[C@H]5C#N)c4c3)CC2)CC1)c1ccc2nccc(C(=O)NCC(=O)N3CC(F)(F)C[C@H]3C#N)c2c1 [DOTA-4P(FAPI)4]	–	–	–	–	–	–	–	–	–	–	–	–	–	15.6

From article PMC10478824, “Development of FAPI Tetramers to Improve Tumor Uptake and Efficacy of FAPI Radioligand Therapy” (Journal of Nuclear Medicine, 2023)
